From patent US3954793A, “1-(2-Propynyl)-1 H-indazole compounds” (priority 1973, dated 1976)
Values joined by “and” are separate entries in the source; they are usually repeats but may differ in a detail not shown here. Equal values may be shown once.

Assays:
[1] = tested on: polyvalent resistant (CH strain) houseflies; test: whole plant or invertebrate; assay type: in vivo
Experimental: The effect of O-(2-propynyl) oximes with Dimetilan and with GS 13798 was obtained from tests on polyvalent resistant (CH strain) houseflies that had been chilled and to the dorsal region of which was applied an acetone solution of synergist and insecticide at a ratio of two to one. Duplicate tests were performed using 10 four to five-day old female houseflies per test. After dosage, the flies were put in a plastic petri dish with cotton soaked in a sugar-water solution. These doses of insecticide used without synergist caused 10-40% mortality.
(§1) In Table IX, and in the tables following it, the doses of topically applied insecticides and of synergists unless otherwise noted are expressed as micrograms per fly (μg/fly).
The effect of compounds II-C, II-D and II-E with Dimetilan and GS 13798 was determined, following the procedure of Example 5, from tests on polyvalent resistant (CH strain) houseflies. These doses of insecticide used without synergist caused 10-40% mortality.
(§2) The synergistic effect with GS 13005 of compounds I-A, I-B, I-D, I-E, I-F, I-G and I-I was determined from topical application tests to IN/WHO strain, Rutgers A strain and polyvalent CH strain houseflies using the procedures of Example 5. The percent kills of the IN/WHO strain flies after 24 hours are shown in Table XXVIII; of the Rutgers A strain, in Table XXIX; and of the polyvalent CH strain, in Table XXX. The doses of insecticide alone to the CH strain files caused 10-40% mortality.
(§3) The synergistic effect with Diazinon and GS 13005 of various of the benzyl 2-propynyl ethers identified in Tables II and IIa was determined by topical application tests on IN/WHO strain, and Rutgers A strain and polyvalent, resistant, CH strain houseflies using the procedures of Example 5. The percent kills after 24 hours of IN/WHO strain flies are shown in Table XXXI; of Rutgers A strain flies, in Table XXXII; and of CH strain flies, in Table XXXIII. The doses of insecticide alone to the CH strain flies caused 10-40% mortality.
The synergistic effect with pyrethrum of various synergist compounds was determined by topical application tests on polyvalent, resistant CH strain houseflies following the procedure of Example 5. Application of the insecticide alone caused 10-40% mortality.

[2] = tested on: IN/WHO strain house flies; test: topical application, percent kill after 24 hours, susceptible IN/WHO strain; assay type: in vivo, female)
Experimental: as §1
(§4) The synergistic effect of O-(2-propynyl) oximes with mobam was determined from topical application tests on susceptible, female, IN/WHO strain house flies and from tests on resistant, female, Rutgers A strain house flies. The synergist and insecticide were dissolved in ACS Grade acetone in such quantities that a 1.0 μ liter volume applied to the thorax of 3-to-5 day old CO2 -anesthetized female adult house flies contained the desired dosage. After being treated, the flies were confined, 10 to a plaster petri dish, with 3-5 dishes/treament, and held for 24-hr. observation of mortality. Reconstituted skim milk on cotton dental wicks was provided during the holding period. The percent kills after 24 hours are shown in Table X for the IN/WHO strain and Table XI for the Rutgers A strain.
(§5) The synergistic effect of benzyl 2-propynyl ethers with mobam was determined from topical application tests on IN/WHO and Rutgers A strain houseflies, following the procedure of Example 5. The percent kills after 24 hours are shown in Table XIV for the IN/WHO strain and in Table XV for the Rutgers A strain.
The effects of varying the insecticide dose and the synergist-insecticide ratio are further illustrated, with synergist compounds II-D, II-E, II-F and Mobam insecticide, in Tables XVI, XVII and XVIII. […]
The effect on IN/WHO flies of synergist compound IV-C, identified in Table IV, with mobam was determined by the topical application procedure of Example 5. […]
as §2
as §3, with “mortality. […]” for “mortality.”
(§6) The synergistic effect on IN/WHO strain flies and Rutgers A strain flies of compound IV-C with GS 13005 and with Diazinon was determined by the topical application procedure of Example 5. The percent kills of IN/WHO strain flies after 24 hours are shown in Tables XXXVI and XXXVII; the percent kills of Rutgers A strain flies are shown in Tables XXXVIII and XXXIX.

[3] = tested on: Rutgers A strain house flies; test: topical application, percent kill after 24 hours, resistant Rutgers A strain; assay type: in vivo, female)
Experimental: as §1, §4, §5
The synergistic effect with Diazinon of compounds I-B, I-D, I-F, I-G, I-H and I-I, identified in Tables I and Ia, was determined from topical application tests on IN/WHO strain houseflies and on Rutgers A strain houseflies by the procedure of Example 5. The percent kills after 24 hours are shown in Table XXV for the IN/WHO strain and Table XXVI for the Rutgers A strain.
as §2, §3, §6

[4] = tested on: Wilson strain house flies; assay type: in vivo, Wilson strain (susceptible); settings: for Contact Synergistic Ratio, Pyrolan: LC50 pyrolan alone / LC50 with synergist, synergist to insecticide 5:1 by weight; for Contact Synergistic Ratio, Carbaryl: in vivo
Experimental: The required solutions of the insecticide and of the synergist compound were prepared in acetone at a concentration of 1 milligram per milliliter. One-pint wide mouth glass jars were coated with the appropriate insecticide-synergist combination by rolling the jars containing aliquots of the appropriate solutions diluted to three milliliters with acetone to deposit, by evaporation, a film of the test materials. The flies were transferred under carbon dioxide anesthesia and held in the jar at room temperature. Perforated aluminum foil was used to cover the jars and to hold cotton saturated with 10% sugar solution. Counts were made at intervals, but the recorded mortality was based on 24-hour kill, rather than knockdown. All prostrate non-moving flies were considered dead. A determination was then made of the contact synergistic ratio [SR], which is the ratio of the LC50 of insecticide alone to the LC50 of the insecticide when applied together with the synergist. The LC50 of the insecticide was estimated from a log-probit plot of percent kill versus dosage. […] The LC50 of the combination of insecticide and synergist was determined at a synergist to insecticide parts by weight ratio of five to one.

[5] = tested on: Swiss albino, white male mice; test: acute toxicity and synergism of acute toxicity in mice; assay type: in vivo; settings: 48 hours; for Lethality, Dimetilan alone (number of mice dead) / number of mice dead, with Dimetilan: eight mice
Experimental: To determine the acute toxicity of dimetilan alone, eight dosage levels of Dimetilan, ranging from 4 to 32 mg per kg were applied to eight, Swiss, albino, white, male mice per dosage level. The mice weighed approximately 23 to 27 grams and were five to six weeks old. The Dimetilan was administered intraperitoneally in 0.1 ml of corn oil one hour after the administration of the same dose of corn oil alone.
To determine the acute toxicity of the synergist alone, various synergists were administered intraperitoneally at a dose of 1000 mg/kg to each of a group of eight mice. The number of animals dead at the end of 72 hours is reported in the left hand column of Table XXXXVI.
The synergism of the acute toxicity of Dimetilan by various synergists was determined by tests on Swiss albino, white male mice aged five to six weeks and weighing 23 to 27 grams. The synergists and insecticides were dissolved in corn oil and the drugs were dissolved in distilled water. All compounds were administered intraperitoneally by injection in the lower quadrent of the abdomen. The synergist was administered in 0.1 ml of corn oil one hour prior to administration of the insecticide. Eight mice were treated, per dosage, with each synergist. The mice were watched for a minimum of 6 hours while held in a glass jar with bedding individually after intraperitoneal injection of the test solutions. Lethality was noted, the animals were weighed and transferred in cages, and food and water were supplied. Control mice were given 0.1 ml of corn oil at the time of administration of the synergist to the test mice and 0.1 ml corn oil plus Dimetilan at the time of administration of the insecticide to the test mice.
By the same procedure, the synergism of acute toxicity of GS 13005, Secobarbital and 6-dimethylamino-4,4-diphenyl-3-heptanone [Methadone] was determined.

male mice = test: extension of sleeping time of depressant drugs by synergists; assay type: in vivo, male mice (Swiss albino white); settings: for Mean Sleeping Time, Noludar / Relative Sleeping Time, Noludar: Noludar 110 mg/kg; for Relative Sleeping Time, Noludar / Relative Sleeping Time, Secobarbital: treated/control; for Mean Sleeping Time, Secobarbital / Relative Sleeping Time, Secobarbital: Secobarbital 37 mg/kg
Experimental: The selectivity of the synergist compounds of this invention is illustrated by the results of sleeping-time extension tests and of acute toxicity tests on Swiss albino white male mice.
The effect of various synergist compounds on sleeping time of sodium secobarbital [Secobarbital] and of 3,3-diethyl-5-methyl-2,4-dioxypiperidine [Noludar] was determined by administering the drug, with and without synergist, to approximately 38-day old male mice weighing from 25 to 30 grams. Synergists were administered in each of two doses, 74.0 mg/kg (dilution being 2.0 mg/0.1 ml corn oil), and 110.0 mg/kg (dilution 3.0 mg/0.1 ml oil). Secobarbital was administered at a dose of 37.0 mg/kg (dilution 1.0 mg/0.1 ml water). Noludar was administered at a dose of 110.0 mg/kg (dilution 3.0 mg/0.1 ml water). The synergist was administered one hour prior to administration of the Secobarbital or Noludar. Secobarbital and Noludar sleeping times were obtained for both the control (drug only) and the treated (synergist plus drug) mice by noting the time lapse between the administration of the drug and the recovery of the righting reflex, i.e. when the animal regains conciousness and can walk up an inclined wooden tray with coordination. The relative sleeping time (R.S.) was noted. The R.S. is the extended sleeping time in the treated mice (synergist plus drug) divided by the sleeping time in the control mice (drug only). The mean sleeping time for the treated mice and the R.S. are shown on Table XXXXIV for various synergist compounds.

[6] = insecticide alone at the doses of the CH strain tables, 1440 min
[7] = Dimetilan 8 mg/kg, oil in place of synergist
[8] = synergist 110 mg/kg one hour prior
[9] = Dimetilan 8 + synergist 240 mg/kg i.p.

SMILES: CCOP(=S)(OCC)Oc1cc(C)nc(C(C)C)n1 [Diazinon, O,O-diethyl O-(2-isopropyl-4-methyl-6-pyrimidyl) phosphorothioate, reference compound]
- mortality, insecticide used without synergist ([1]; house fly, in vivo, topical or ocular, 24 h): 10-40%
- percent kill after 24 hours, Diazinon alone ([2]; Diazinon 0.02, synergist 0 μg/fly): 3%
- percent kill after 24 hours, Diazinon alone ([2]; Diazinon 0.03, synergist 0 μg/fly, 1440 min): 0% and 5%
- percent kill after 24 hours, Diazinon alone ([3]; Diazinon 1.0, synergist 0 μg/fly): 0%
- percent kill after 24 hours, Diazinon alone ([3]; Diazinon 1.5, synergist 0 μg/fly, 1440 min): 3% and 0%

SMILES: Cc1cc(OC(=O)N(C)C)nn1C(=O)N(C)C [Dimetilan, 1-(dimethylcarbamoyl)-5-methyl-3-pyrazolyl dimethylcarbamate, reference compound]
- lethality to the common house fly, in words ([4]; insecticide alone, common house fly): relatively lethal
- mortality, insecticide used without synergist [1, 6]: 10-40%
- 24 hour percent mortality, Dimetilan alone ([2]; Dimetilan 0.031 μg/fly): 0%
- Lethality, Dimetilan alone (number of mice dead) ([5]; 4.0 mg/kg i.p.): 0
- Lethality, Dimetilan alone (number of mice dead) ([5]; 8.0 mg/kg i.p.): 0
- Lethality, Dimetilan alone (number of mice dead) ([5]; 12.0 mg/kg i.p.): 1
- Lethality, Dimetilan alone (number of mice dead) ([5]; 16.0 mg/kg i.p.): 3
- Lethality, Dimetilan alone (number of mice dead) ([5]; 20.0 mg/kg i.p.): 4
- Lethality, Dimetilan alone (number of mice dead) ([5]; 24.0 mg/kg i.p.): 7
- Lethality, Dimetilan alone (number of mice dead) ([5]; 28.0 mg/kg i.p.): 8
- Lethality, Dimetilan alone (number of mice dead) ([5]; 32.0 mg/kg i.p.): 8
- number of mice dead, Dimetilan control (0.1 ml oil), 80 mg/kg [5, 7]: 0
- number of mice dead, Dimetilan control (0.1 ml oil), 240 mg/kg [5, 7]: 0
- dose level just below that at which Dimetilan alone showed lethality to the mice ([5]; i.p.): 8 mg/kg

SMILES: CNC(=O)Oc1cccc2ccc(C)nc12 [GS 13798, 8-(2-methylquinolyl)-N-methylcarbamate, reference compound]
- mortality, insecticide used without synergist [1, 6]: 10-40%

SMILES: C#CCn1ncc2ccc(Cl)cc21 [III-D]
- Contact Synergistic Ratio, Pyrolan [4]: 25
- Contact Synergistic Ratio, Carbaryl [4]: 250
- Mean Sleeping Time, Noludar (male mice; [8]): 45 min
- Relative Sleeping Time, Noludar (male mice; synergist 110 mg/kg): 1.5
- Mean Sleeping Time, Secobarbital (male mice; [8]): 55 min
- Relative Sleeping Time, Secobarbital (male mice; synergist 110 mg/kg): 1.2
- number of mice dead, with Dimetilan [5, 9]: 1

SMILES: C#CCOC(c1ccc(Cl)cc1Cl)C(C)[N+](=O)[O-] (centres unmarked) [IV-A, 2-propynyl 1-(2,4-dichlorophenyl)-2-nitropropyl ether]
- Contact Synergistic Ratio, Pyrolan [4]: 10
- Contact Synergistic Ratio, Carbaryl [4]: 134
- Mean Sleeping Time, Noludar (male mice; [8]): 78 min
- Relative Sleeping Time, Noludar (male mice; synergist 110 mg/kg): 2.7
- Mean Sleeping Time, Secobarbital (male mice; synergist 74 mg/kg one hour prior): 56 min
- Relative Sleeping Time, Secobarbital (male mice; synergist 74 mg/kg): 2.3
- number of mice dead, with Dimetilan ([5]; Dimetilan 8 + synergist 80 mg/kg i.p.): 4
- number of mice dead, with Dimetilan [5, 9]: 7
